Measurements from the NIST ThermoML archive (doi:10.1016/j.jct.2010.08.004).

Assay: mn = molality of the nth substance listed, in mol/kg
Conditions: 101 kPa, Liquid, Vibrating tube method

NCC(=O)O [2-aminoacetic acid] + O
mass density [kg/m3]
Conditions	m1 = 0.05482	m1 = 0.1106	m1 = 0.1792	m1 = 0.2044	m1 = 0.2754	m1 = 0.2966
293.15 K	999.976	1001.75	1003.91	1004.69	1006.9	1007.58
298.15 K	998.789	1000.54	1002.68	1003.46	1005.64	1006.28
303.15 K	997.364	999.102	1001.22	1002	1004.17	1004.81
308.15 K	–	997.455	999.562	1000.33	1002.5	1003.13

CC(C)C[C@H](N)C(=O)O [L-leucine] + O
mass density [kg/m3]
Conditions	m1 = 0.03401	m1 = 0.03488	m1 = 0.05007	m1 = 0.08154	m1 = 0.119	m1 = 0.1427
293.15 K	999.039	999.061	999.427	1000.18	1001.08	1001.64
298.15 K	997.855	997.877	998.236	998.978	999.854	1000.41
303.15 K	996.441	996.462	996.817	997.55	998.417	998.966
308.15 K	994.81	994.83	995.182	995.908	996.767	997.31

CC(C)[C@H](N)C(=O)O [L-valine] + O
mass density [kg/m3]
Conditions	m1 = 0.04524	m1 = 0.09973	m1 = 0.152	m1 = 0.1964	m1 = 0.2542	m1 = 0.2955
293.15 K	999.424	1000.87	1002.24	1003.4	1004.9	1006.01
298.15 K	998.244	999.672	1001.03	1002.18	1003.67	1004.72
303.15 K	996.827	998.242	999.59	1000.73	1002.2	1003.25
308.15 K	995.195	996.6	997.939	999.067	1000.53	1001.56
